Residues, ends and D or L forms follow the SMILES beside them. No end group written: not given here.
Experiments:
[1] = system: T-lymphocytes (mice's spleen cells); assay: ConA-induced IFN-γ production by mouse spleen T lymphocytes, ELISA of culture supernatant; type: cell-based, ICR mice; parameters: Mean (IFN-γ, ConA-induced cytokine production): unit not given here; settings: for Mean (IFN-γ, ConA-induced cytokine production): 24 hours
Experimental: (§1) With Zadaxin as a positive control, the effect of the samples on T-lymphocytes producing cytokines were tested to confirm if the samples could adjust T-lymphocyte immune activity and the extent thereof.
(§2) In the lymphocytes cultured in vitro, T cell can be activated by the stimulation of mitosis Concanavalin A and brings change of cells' behavior such as cytokine synthesis, cytokine receptor expression, cell differentiation and cell proliferation. The generation of cytokine and proliferation of the cell are response of the immune cell function and cell activation. Detection means is reliable, simple, and with good repeatability, therefore, evaluating the samples' effect to the function of T lymphocytes by detecting cytokine generation and cell proliferation has been widely applied.
(§3) Preparation of spleen cell suspension: mice's spleen was obtained under aseptic condition, which was ground with frosted glass. The spleen cell suspension was thus obtained. After red blood lysis, the spleen cell suspension was washed three times, counted (live cells being more than 95%). The concentration of spleen cell was adjusted to 5×10^6 cells/ml with 10% FBS (bovine serum) RPMI1640 culture fluid.
(§4) The concentration of mice's Spleen cells was adjusted to 5×10^6 cells/ml, and then distributed it into 24 wells plate with 1 ml/well; samples with various concentrations were added into the plate respectively with 0.5 ml/well; and then ConA (20 ug/ml) was added with 0.5 ml/well. The samples were kept at 37° C. in CO2 incubator for 24 hours, centrifuged and collected culture supernatant.
(§5) Antibody Coating: The antibody was diluted with coating buffer and then was added into 96 well ELISA plates with 50 μL each wells. The plate was left overnight at […].
(§6) Blocking: The antibody coating buffer was removed, and the plate was washed 3 times with washing solution (PBS/Tween solution). 100 μL of blocking buffer (PBS/10% FBS) was added to each wells of the plates. The plate was incubated at room temperature for 1 hour.
(§7) Standards and samples: The blocking buffer was removed from the plates, which was washed 3 times with washing solution (PBS/Tween solution) and followed by adding standards and samples with 50 μL each wells. The plate was incubated at room temperature for 2 hours.
(§8) Detection of Antibody and Enzyme: The standards and samples were removed from the plates. The plate was washed 3 times with washing solution (PBS/Tween solution). The diluted detective antibody and enzyme HRP were added into the plate with 50 μL each wells. The plate was incubated at room temperature for 1 hour.
(§9) Substrate Staining: The diluted detection antibody and enzyme HRP were removed from the plate which was then washed 3 times with washing solution (PBS/Tween solution). The substrate resolved in citricic acid/hydrogen peroxide (TMB) was added into the plate with 50 μL each wells. The plate was incubated at room temperature away from the light for 30 minutes. After being stained, stop solution 2N H2SO4 was added into the plate with 25 μL per well.
(§10) OD Detection: The plate was placed into enzyme-labeled instrument and read OD values at 450 nm (calibrated value of 570 nm).

[2] = system: T-lymphocytes (mice's spleen cells); assay: ConA-induced IL-2 production by mouse spleen T lymphocytes, ELISA of culture supernatant; type: cell-based, ICR mice; parameters: unit not given here; settings: 24 hours
Experimental: as §1, §2, §3, §4, §5, §6, §7, §8, §9, §10

[3] = Pharmacokinetic test, half life after hypodermic injection; settings: in vivo, subcutaneous
[4] = in body; cited from earlier work

Molecule | activity of promoting the production of IFN-r by T cells ([1]; all experimental concentrations) | promoting the production of IFN-r by T cells ([1]; compared with PEG-TA1) | Mean (IFN-γ, ConA-induced cytokine production) ([1]; sample 0.001 ug/ml) | Mean (IFN-γ, ConA-induced cytokine production) ([1]; sample 0.01 ug/ml) | Mean (IFN-γ, ConA-induced cytokine production) ([1]; sample 0.1 ug/ml) | Mean (IFN-γ, ConA-induced cytokine production) ([1]; sample 1 ug/ml) | Mean (IFN-γ, ConA-induced cytokine production) ([1]; sample 10 ug/ml) | Mean (IFN-γ, ConA-induced cytokine production) ([1]; sample 100 ug/ml) | Mean (IL-2, ConA-induced cytokine production) ([2]; sample 0.001 ug/ml) | Mean (IL-2, ConA-induced cytokine production) ([2]; sample 0.01 ug/ml) | Mean (IL-2, ConA-induced cytokine production) ([2]; sample 0.1 ug/ml) | Mean (IL-2, ConA-induced cytokine production) ([2]; sample 1 ug/ml) | Mean (IL-2, ConA-induced cytokine production) ([2]; sample 10 ug/ml) | Mean (IL-2, ConA-induced cytokine production) ([2]; sample 100 ug/ml) | half-life [3] | T1/2 [4] | stimulation of the production of IFN-r by T cells ([1]; compared with Zadaxin, several experimental concentration)
Ac-Ser-Asp-Ala-Ala-Val-Asp-Thr-Ser-Ser-Glu-Ile-Thr-Thr-Lys-Asp-Leu-Lys-Glu-Lys-Lys-Glu-Val-Val-Glu-Glu-Ala-Glu-Asn-Gly-Gly-Cys-PEG40K (Ac-SDAAVDTSSEITTKDLKEKKEVVEEAENGG-{C(branched 40K mPEG-maleimide)}) [T-GG-C-mPEG, thymosin alpha 1 peptide derivative modified with PEG; PEG40K: branched-chain (mPEG)2-MAL] | showed activity | more effective than the thymosin alpha 1 modified with PEG at the N-terminal | 4703 | 4891 | 4654 | 4990 | 5102 | 5577 | 3409 | 3610 | 3530 | 3397 | 3618 | 3692 | – | – | –
CC[C@H](C)[C@H](NC(=O)[C@H](CCC(=O)O)NC(=O)[C@H](CO)NC(=O)[C@H](CO)NC(=O)[C@@H](NC(=O)[C@H](CC(=O)O)NC(=O)[C@@H](NC(=O)[C@H](C)NC(=O)[C@H](C)NC(=O)[C@H](CC(=O)O)NC(=O)[C@H](CO)NC(C)=O)C(C)C)[C@@H](C)O)C(=O)N[C@H](C(=O)N[C@H](C(=O)N[C@@H](CCCCN)C(=O)N[C@@H](CC(=O)O)C(=O)N[C@@H](CC(C)C)C(=O)N[C@@H](CCCCN)C(=O)N[C@@H](CCC(=O)O)C(=O)N[C@@H](CCCCN)C(=O)N[C@@H](CCCCN)C(=O)N[C@@H](CCC(=O)O)C(=O)N[C@H](C(=O)N[C@H](C(=O)N[C@@H](CCC(=O)O)C(=O)N[C@@H](CCC(=O)O)C(=O)N[C@@H](C)C(=O)N[C@@H](CCC(=O)O)C(=O)N[C@@H](CC(N)=O)C(=O)O)C(C)C)C(C)C)[C@@H](C)O)[C@@H](C)O [Zadaxin, thymosin alpha 1] (Ac-SDAAVDTSSEITTKDLKEKKEVVEEAEN-OH) | – | – | – | – | – | – | – | – | – | – | – | – | – | – | ~2 h | 2 h | –
PEG-TA1: thymosin alpha 1 modified with PEG (derivative when n was 0); b135 calls it modified at the N-terminal (SDAAVDTSSEITTKDLKEKKEVVEEAEN; not fully specified (N-terminus); ends and bridges not checked; also: PEG attached, site unclear; UniProt P06454 2-29, looked up) | – | – | 4809 | 4603 | 4141 | 4949 | 3874 | 5467 | 3505 | 3438 | 3339 | 3214 | 3348 | 3582 | – | – | more effective

— patent US20100184653A1, “Derivates of Polyethylene Glycol Modified Thymosin Alpha 1” (Jiangsu Hansen Pharmaceutical Co., Ltd., priority 2008, published 2010)
